Values of other authors in patent publication US20230150906A1, “DESOXYSCALINE DERIVATIVES WITH MODIFIED MESCALINE-LIKE ACTION” (Mind Medicine, Inc., priority 2021, published 2023).
Entries after “also recorded” stand apart in the source; their conditions may differ.

Columns and labels:
[1] = molecular target: 5-HT2A receptor (Homo sapiens, UniProt P28223)
[2] = system: humans
[3] = molecular target: 5-HT transporter (SERT) (Homo sapiens, UniProt P31645)
[4] = molecular target: D2 receptors (Homo sapiens, UniProt P14416)
Chain of D2 receptors (P14416 whole entry): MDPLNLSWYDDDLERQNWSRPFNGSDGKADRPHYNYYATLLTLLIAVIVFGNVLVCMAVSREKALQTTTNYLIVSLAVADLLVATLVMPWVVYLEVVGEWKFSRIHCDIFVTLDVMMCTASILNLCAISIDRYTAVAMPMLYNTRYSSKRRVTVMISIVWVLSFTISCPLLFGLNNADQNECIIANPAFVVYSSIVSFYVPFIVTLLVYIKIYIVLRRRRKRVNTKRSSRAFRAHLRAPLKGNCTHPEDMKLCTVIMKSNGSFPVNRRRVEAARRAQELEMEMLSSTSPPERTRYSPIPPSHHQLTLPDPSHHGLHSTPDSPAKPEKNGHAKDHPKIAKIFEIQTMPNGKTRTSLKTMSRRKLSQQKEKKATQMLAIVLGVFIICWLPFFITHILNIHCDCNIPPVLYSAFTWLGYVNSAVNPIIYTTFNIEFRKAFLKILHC

[5] = humans
[6] = molecular target: serotonin 5-HT2A receptor (Homo sapiens, UniProt P28223)
Chain of serotonin 5-HT2A receptor (P28223 whole entry): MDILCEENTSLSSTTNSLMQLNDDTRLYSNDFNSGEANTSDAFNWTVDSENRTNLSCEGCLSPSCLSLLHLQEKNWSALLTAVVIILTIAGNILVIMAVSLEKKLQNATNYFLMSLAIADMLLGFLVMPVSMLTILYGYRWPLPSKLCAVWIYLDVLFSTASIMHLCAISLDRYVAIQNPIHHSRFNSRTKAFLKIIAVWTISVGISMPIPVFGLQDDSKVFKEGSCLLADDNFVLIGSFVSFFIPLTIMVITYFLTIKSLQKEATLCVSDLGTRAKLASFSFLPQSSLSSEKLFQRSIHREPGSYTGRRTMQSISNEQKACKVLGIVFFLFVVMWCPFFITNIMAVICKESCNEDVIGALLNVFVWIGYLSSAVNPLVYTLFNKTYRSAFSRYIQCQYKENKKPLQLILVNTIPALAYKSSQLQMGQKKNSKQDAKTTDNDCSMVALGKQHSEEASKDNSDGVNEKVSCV

Chain of 5-HT2A receptor (P28223 whole entry): as above
Chain of 5-HT transporter (SERT) (P31645 whole entry, species assumed): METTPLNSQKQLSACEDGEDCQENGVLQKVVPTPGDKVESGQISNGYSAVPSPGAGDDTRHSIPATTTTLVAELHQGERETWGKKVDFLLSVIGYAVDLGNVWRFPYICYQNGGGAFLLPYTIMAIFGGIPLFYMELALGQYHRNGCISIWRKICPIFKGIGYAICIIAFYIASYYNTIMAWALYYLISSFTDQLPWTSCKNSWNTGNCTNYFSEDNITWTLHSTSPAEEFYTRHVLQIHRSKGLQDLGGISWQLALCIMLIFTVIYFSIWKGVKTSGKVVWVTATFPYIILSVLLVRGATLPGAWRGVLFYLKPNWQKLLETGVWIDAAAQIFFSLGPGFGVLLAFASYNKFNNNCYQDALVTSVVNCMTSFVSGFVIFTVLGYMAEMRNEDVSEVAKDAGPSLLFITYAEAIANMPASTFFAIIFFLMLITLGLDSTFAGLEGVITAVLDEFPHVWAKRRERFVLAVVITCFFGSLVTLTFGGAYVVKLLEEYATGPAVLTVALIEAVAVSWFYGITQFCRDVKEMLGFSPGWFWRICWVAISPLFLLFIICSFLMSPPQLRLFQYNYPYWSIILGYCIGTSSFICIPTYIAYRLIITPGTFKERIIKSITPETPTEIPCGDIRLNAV

CN(C)CCc1c[nH]c2ccccc12 [DMT, N,N-dimethyltryptamine]
activity at the 5-HT2A receptor (agonism / stimulation) [1]: agonists

COc1cc(CCN)cc(OC)c1C [DESOXY, 3,5-dimethoxy-4-methylphenethylamine]
psychoactive effects in human ([2]; human): has shown psychoactive effects in human

CN(C)CCc1c[nH]c2cccc(O)c12 [Psilocin, psilocin]
interaction with the SERT [3]: inhibits
activity at the 5-HT2A receptor (agonism / stimulation) [1]: stimulates

CCN(CC)C(=O)[C@@H]1C=C2c3cccc4[nH]cc(c34)C[C@H]2N(C)C1 [LSD, lysergic acid diethylamide]
activity at D2 receptors [4]: has activity
activity at the 5-HT2A receptor (agonism / stimulation) [1]: agonists; also recorded: potently stimulates

COc1cc(CCN)cc(OC)c1OC [mescaline]
dose needed to induce a full psychedelic experience ([2]; humans): 200 to 800 mg
time of peak of subjective effects ([2]; humans, psychoactive doses): 4 h
time until subjective effects appear ([2]; humans, psychoactive doses): ≤ 30 min
duration of subjective effects ([2]; humans, psychoactive doses, dose-dependent): 10 to 16 h
plasma half-life [5]: approximately 6 hours
interaction with the SERT [3]: do not interact
5-HT2A receptor ligand strength [6]: very weak
affinity for D2 receptors [4]: no affinity
activity at the 5-HT2A receptor (agonism / stimulation) [1]: agonists
